Experiment [1] concerns ICAM-1 expression, BEAS2B cells. Description: Poly I:C-induced ICAM-1 expression in BEAS2B cells. Type of experiment: cell-based. The following applies: Homo sapiens, BEAS-2B; read-out: Poly IC induced ICAM1 in BEAS2B, IC50. Put shortly:
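Cell-based ELISA for surface ICAM-1 in human BEAS2B cells 18 h after transfection with the RNA-virus mimic poly I:C (1 μg/mL, with Oligofectamine), compounds added 2 h beforehand. OD450–655 divided by Crystal Violet OD595 per well; percent inhibition relative to vehicle.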

Experiment [2] relates to IL-8 release, d-U937 cells. Description: LPS-induced IL-8 release in d-U937 cells. The format is cell-based. The settings on record: Homo sapiens, dU937. In a few lines:
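IL-8 release after a 4 hr challenge with LPS (0.1 μg/mL, E. coli 0111:B4) following a 2 hr compound pretreatment. Cells were human U937 monocytes differentiated to macrophage-type with PMA 100 ng/mL for 48–72 hr. Relative 50% effective concentration derived from concentration–response data.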

The next experiment has as its system HRV16 in MRC5 cells. Description: HRV16 induced CPE in MRC5 cells. Type of experiment: cell-based. The settings on record: Human rhinovirus sp., HRV-16. How it is done:
(j) Assessment of HRV16 Induced CPE in MRC5 Cells
MRC-5 cells are infected with HRV16 at an MOI of 1n DMEM containing 5% FCS and 1.5 mM magnesium chloride, followed by incubation for 1 hr at 33° C. to promote adsorption. The supernatants are aspirated, and then fresh media added followed by incubation for 4 days. Where appropriate, cells are pre-incubated with compound or DMSO for 2 hr, and the compounds and DMSO added again after washout of the virus.
After washing, 1% SDS in distilled water (100 μL) is added to each well, and the plates are shaken lightly for 1-2 hr prior to reading the absorbance at 660 nm. The percentage inhibition for each well is calculated. The IC50 value is calculated from the concentration-response curve generated by the serial dilutions of the test compounds.

For the next experiment, the target named is cSrc (Homo sapiens, UniProt P12931). Description: c-Src enzyme inhibition (FRET). Type of experiment: biochemical. Put shortly:
(§1)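 Kinase activity is measured on a dual-labelled synthetic peptide by FRET. ATP is supplied as an 800 μM solution for c-Src and a 60 μM solution for Syk. Compound is tested at four added concentrations, 4 to 0.004 μg/mL.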

For the next experiment, the target named is Syk (Homo sapiens, UniProt P43405). Description: Syk enzyme inhibition (FRET). The format is biochemical. In a few lines: as §1
The test system of the next experiment is PBMC cells. Description: Cell mitosis assay. The format is cell-based. The following applies: Homo sapiens, read-out: % Inhibition of mitosis in PBMC cells at 5 μg/mL. Put shortly: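 Healthy-donor PBMCs (3 million cells per sample) stimulated with 2% PHA for 48 hr, then exposed 20 hr to varying compound concentrations. Demecolcine (0.1 μg/mL) added 2 hr before collection to arrest cells in metaphase; read by flow cytometry gated on lymphocytes.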

Experiment [3] concerns TNFα release, d-U937 cells. Description: LPS-induced TNFα release in d-U937 cells. Type of experiment: cell-based. The following applies: Homo sapiens, dU937; for IC50: Table 4c2, different laboratory, read-out: IC50 Values for Inhibition of Cytokine Release, dU937 cells, TNFα; for EC50: relative to 10 μg/mL BIRB796, Table 4c1, read-out: LPS Induced Release of Cytokine in d-U937 Cells, TNFα REC50. Put shortly:
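Sandwich ELISA quantifies cytokine in supernatants after 4 hr LPS challenge (0.1 μg/mL) of PMA-differentiated (100 ng/mL, 48–72 hr) U937 macrophages given compound 2 hr beforehand. REC50 derived from concentration-response curve, inhibition calculated relative to vehicle.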

Setting [4] is: Table 4c1, read-out: LPS Induced Release of Cytokine in d-U937 Cells, IL-8 IC50.
[5] abbreviates: Table 4c2, different laboratory, read-out: IC50 Values for Inhibition of Cytokine Release, dU937 cells, IL-8.
The mark [6] stands for this setting: Table 4a2, different laboratory.

Where two headings read alike, the source gives them in different places. Bounds are passed on as bounds.

The IC50 is the midpoint of a concentration-inhibition curve.

Chain of cSrc (P12931 whole entry): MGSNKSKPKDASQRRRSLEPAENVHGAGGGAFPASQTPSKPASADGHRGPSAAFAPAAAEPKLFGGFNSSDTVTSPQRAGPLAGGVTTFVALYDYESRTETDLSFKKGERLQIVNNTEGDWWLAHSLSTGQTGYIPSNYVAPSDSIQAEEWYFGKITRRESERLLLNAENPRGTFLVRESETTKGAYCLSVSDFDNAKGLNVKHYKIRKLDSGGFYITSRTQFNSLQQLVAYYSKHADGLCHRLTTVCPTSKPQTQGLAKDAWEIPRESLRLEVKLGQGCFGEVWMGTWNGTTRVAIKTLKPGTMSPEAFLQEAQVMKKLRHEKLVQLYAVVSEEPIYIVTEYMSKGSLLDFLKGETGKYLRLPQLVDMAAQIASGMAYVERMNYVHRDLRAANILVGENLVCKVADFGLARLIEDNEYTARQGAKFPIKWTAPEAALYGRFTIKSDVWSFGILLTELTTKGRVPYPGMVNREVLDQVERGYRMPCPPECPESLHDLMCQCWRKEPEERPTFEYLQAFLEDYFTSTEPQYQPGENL

As to `COc1cc(Nc2cc(Oc3ccc(NC(=O)Nc4cc(C(C)(C)C)nn4-c4ccc(C)cc4)c4ccccc34)ccn2)cc(C(=O)NCCN2CCOCC2)c1` [Example 1, 3-((4-((4-(3-(3-(tert-Butyl)-1-(p-tolyl)-1H-pyrazol-5-yl)ureido)naphthalen-1-yl)oxy)pyridin-2-yl)amino)-5-methoxy-N-(2-morpholinoethyl)benzamide], the IC50 in experiment [1] was found to be 3.4 nM; in experiment [2] (setting [4]), 1.8 nM; in experiment [2] (setting [5]), 2.8 nM; in the experiment with HRV16 in MRC5 cells, 2.9 nM; on cSrc (Table 4a1) it was 5 nM; at cSrc (setting [6]), 27 nM. Moreover, the IC50 was found to be 10 nM at Syk (Table 4a1), 66 nM against Syk (setting [6]) and 2.1 nM in experiment [3]. In addition, the inhibition at 5 µg/mL in the experiment with PBMC cells came out at 39.3%. In addition, the EC50 in experiment [3] was found to be 0.7 nM.
With `Cc1ccc(-n2nc(C(C)C)cc2NC(=O)Nc2ccc(Oc3ccnc(Nc4cc(C(=O)NCCN5CCOCC5)cc(C(F)(F)F)c4)n3)c3ccccc23)cc1` [Example 7, 3-((4-((4-(3-(3-isopropyl-1-(p-tolyl)-1H-pyrazol-5-yl)ureido)naphthalen-1-yl)oxy)pyrimidin-2-yl)amino)-N-(2-morpholinoethyl)-5-(trifluoromethyl)benzamide], the IC50 is 1.5 nM in experiment [1]; 1.5 nM in experiment [2] (setting [4]); 13 nM on cSrc (Table 4a1); 27 nM on cSrc (setting [6]); 2.7 nM in experiment [3]. Besides, in the experiment with PBMC cells, the inhibition at 5 µg/mL amounted to 20.6%. Also, in experiment [3], the EC50 worked out at 0.2 nM.
`COc1cc(Nc2nccc(Oc3ccc(NC(=O)Nc4cc(C(C)C)nn4-c4ccc(C)cc4)c4ccccc34)n2)cc(C(=O)NCCN2CCOCC2)c1` [Example 8, 3-((4-((4-(3-(3-Isopropyl-1-(p-tolyl)-1H-pyrazol-5-yl)ureido)naphthalen-1-yl)oxy)pyrimidin-2-yl)amino)-5-methoxy-N-(2-morpholinoethyl)benzamide]: the IC50 was 1.1 nM in experiment [1]; 0.3 nM in experiment [2] (setting [4]); 1.4 nM in experiment [2] (setting [5]); 5.4 nM with HRV16 in MRC5 cells; below 1 nM against cSrc (Table 4a1); 41 nM on cSrc (setting [6]). Further, the IC50 is 3 nM at Syk (Table 4a1), 224 nM against Syk (setting [6]) and 1.1 nM in experiment [3]. Moreover, in the experiment on PBMC cells, the inhibition at 5 µg/mL amounted to 15.3%. In addition, the EC50 in experiment [3] came out at 0.8 nM.
For `COc1cc(Nc2nccc(Oc3ccc(NC(=O)Nc4cc(C(F)(F)C(F)(F)F)nn4-c4ccc(C)cc4)c4ccccc34)n2)cc(C(=O)NCCN2CCOCC2)c1` [Example 9], the IC50 in experiment [1] was 6.9 nM; in experiment [2] (setting [4]), 1.4 nM; in the experiment on HRV16 in MRC5 cells, 1.7 nM; at cSrc (Table 4a1) it was 2 nM; at cSrc (setting [6]), 21 nM. For the same compound, the inhibition at 5 µg/mL in the experiment on PBMC cells turned out to be 20.7%. Besides, in experiment [3], the EC50 turned out to be 0.9 nM.
For `COCCNC(=O)c1cc(Nc2nccc(Oc3ccc(NC(=O)Nc4cc(C(C)C)nn4-c4ccc(OC)cc4)c4ccccc34)n2)cc(OC)c1` [Example 11, 3-((4-((4-(3-(3-Isopropyl-1-(4-methoxyphenyl)-1H-pyrazol-5-yl)ureido)naphthalen-1-yl)oxy)pyrimidin-2-yl)amino)-5-methoxy-N-(2-methoxyethyl)benzamide], the concentration for half-maximal inhibition (IC50) stood at 1.2 nM in experiment [1]; 1.3 nM in experiment [2] (setting [4]); 8 nM against cSrc (Table 4a1); 15 nM on cSrc (setting [6]); 75 nM against Syk (Table 4a1); 126 nM against Syk (setting [6]). In experiment [3], the IC50 was found to be 0.3 nM. Further, the inhibition at 5 µg/mL in the experiment with PBMC cells was determined as 50.7%. Also, in experiment [3], the EC50 amounted to 0.2 nM.
On to `COc1ccc(-n2nc(C3(C)COC3)cc2NC(=O)Nc2ccc(Oc3ccnc(Nc4cccc(C(=O)NCCN5CCOCC5)c4)n3)c3ccccc23)cc1` [Example 23, 3-((4-((4-(3-(1-(4-methoxyphenyl)-3-(3-methyloxetan-3-yl)-1H-pyrazol-5-yl)ureido)naphthalen-1-yl)oxy)pyrimidin-2-yl)amino)-N-(2-morpholinoethyl)benzamide], for which the IC50 in experiment [1] was 27.7 nM; in experiment [2] (setting [4]) it was 2.3 nM; in the experiment with HRV16 in MRC5 cells, 22.3 nM; at cSrc (Table 4a1), below 1 nM; against Syk (Table 4a1), 203 nM. For the same compound, in the experiment with PBMC cells, the inhibition at 5 µg/mL stood at 35.6%. In addition, the EC50 in experiment [3] was 5.2 nM.
For the compound `COc1ccc(-n2nc(C(C)(C)C)cc2NC(=O)Nc2ccc(Oc3ccnc(Nc4cc(Br)cc(C(N)=O)c4)n3)c3ccccc23)cc1` [Example 42, 3-bromo-5-((4-((4-(3-(3-(tert-butyl)-1-(4-methoxyphenyl)-1H-pyrazol-5-yl)ureido)naphthalen-1-yl)oxy)pyrimidin-2-yl)amino)benzamide], the IC50 in experiment [1] was found to be 2.3 nM; in experiment [2] (setting [4]), 2 nM; in the experiment with HRV16 in MRC5 cells, 2.2 nM; on cSrc (Table 4a1), 20 nM; at Syk (Table 4a1), 67 nM. Further, the inhibition at 5 µg/mL in the experiment on PBMC cells turned out to be 12.9%. The EC50 in experiment [3] came to 1.5 nM.
In the case of `C#Cc1cc(Nc2nccc(Oc3ccc(NC(=O)Nc4cc(C(C)C)nn4-c4ccc(C)cc4)c4ccccc34)n2)cc(C(=O)NCCN2CCOCC2)c1` [Example 46, 3-ethynyl-5-((4-((4-(3-(3-isopropyl-1-(p-tolyl)-1H-pyrazol-5-yl)ureido)naphthalen-1-yl)oxy)pyrimidin-2-yl)amino)-N-(2-morpholinoethyl)benzamide], the IC50 in experiment [2] (setting [5]) stood at 2.4 nM; at cSrc (setting [6]), 14 nM; against Syk (setting [6]), 22 nM; in experiment [3], 1.1 nM. The inhibition at 5 µg/mL with PBMC cells was -6.7%.
Turning to `COc1cc(Nc2nccc(Oc3ccc(NC(=O)Nc4cc(C5CC5)nn4-c4ccc(C)cc4)c4ccccc34)n2)cc(C(=O)NCCN2CCOCC2)c1` [Example 50, 3-((4-((4-(3-(3-cyclopropyl-1-(p-tolyl)-1H-pyrazol-5-yl)ureido)naphthalen-1-yl)oxy)pyrimidin-2-yl)amino)-5-methoxy-N-(2-morpholinoethyl)benzamide], the IC50 was 16.6 nM in experiment [1]; 8 nM in experiment [2] (setting [4]); 6.8 nM with HRV16 in MRC5 cells; below 1 nM against cSrc (Table 4a1); 32 nM at Syk (Table 4a1). Further, the EC50 in experiment [3] stood at 5.2 nM.
Consider `C#Cc1cc(Nc2nccc(Oc3ccc(NC(=O)Nc4cc(C(C)(C)C)nn4-c4ccc(OC)cc4)c4ccccc34)n2)cc(C(=O)NCCN2CCOCC2)c1` [Example 77, 3-((4-((4-(3-(3-(tert-Butyl)-1-(4-methoxyphenyl)-1H-pyrazol-5-yl)ureido)-naphthalen-1-yl)oxy)pyrimidin-2-yl)amino)-5-ethynyl-N-(2-morpholinoethyl)benzamide], for which the IC50 in experiment [2] (setting [5]) came out at 0.9 nM; against cSrc (setting [6]), 12 nM; against Syk (setting [6]), 18 nM; in experiment [3], 0.4 nM. In the experiment with PBMC cells, the inhibition at 5 µg/mL is -0.3%.
For the compound `C#Cc1cc(Nc2nccc(Oc3ccc(NC(=O)Nc4cc(C(C)(C)C)nn4-c4ccc(N(C)C)cc4)c4ccccc34)n2)cc(C(=O)NCCN2CCOCC2)c1` [Example 80, 3-((4-((4-(3-(3-(tert-Butyl)-1-(4-(dimethylamino)phenyl)-1H-pyrazol-5-yl)ureido)naphthalen-1-yl)oxy)pyrimidin-2-yl)amino)-5-ethynyl-N-(2-morpholinoethyl)-benzamide], the IC50 came out at 0.5 nM in experiment [2] (setting [5]), 19 nM on cSrc (setting [6]), 25 nM at Syk (setting [6]) and 0.3 nM in experiment [3]. Besides, in the experiment with PBMC cells, the inhibition at 5 µg/mL was determined as 10.4%.

The values are drawn from patent US20140057915A1, “KINASE INHIBITORS” (TOPIVERT PHARMA LIMITED, priority 2012, published 2014).
